Like-named read-outs stand apart in the source and are kept apart here.
Biological target: T1, TYK2 (Homo sapiens, UniProt P29597)
T1 construct: Degradation of TYK2 in cells was quantitatively measured using Meso Scale Discovery (MSD) technology; endogenous in cells; host or cells: OCI-LY10
Assay: TYK2 MSD degradation in OCI-LY10 cells
Assay type: cell-based
Settings: 4 to 24 hours incubation; for DC50: read-out: TYK2 MSD OCI-LY10 Rel-DC50
Experimental: Example 7. TYK2 MSD Degradation
Degradation of TYK2 in cells was quantitatively measured using Meso Scale Discovery (MSD) technology. OCI-LY10 cells were seeded in 96-well plates with a density of 0.4 million cells per well in 100 μl fresh media. Compounds were then added to the assay plates with a final top concentration of 1 to 10 μM in a 1:3 dilution series with total of 9 doses. The assay plates were then incubated for 4 to 24 hours at 37° C. under […]. The assay plates were then centrifuged for 5 minutes, and the cell pellets were treated with 100 μl/well RIPA lysis buffer (Boston Bioproducts, BP-115D) with protease and phosphatase inhibitors (Roche, 05892791001 and 04906837001). To prepare MSD assay plates (MSD, L15XA), the plates were coated with the capture antibody (Santa Cruz Biotechnology, SC-5271) in PBS, at 40 μl/well. The plates were then incubated overnight at 4° C., washed 3 times with 150 μl/well TBST buffer (Cell Signaling Technology, 9997S) and blocked with 150 μl/well blocking buffer (MSD, R93BA-4). Cell lysates were then added to MSD assay plates and the plates were incubated at room temperature for 1 hour. The plates were then washed 3 times with 150 μl/well TBST buffer and 25 μl/well primary detection antibody (Cell Signaling Technology, #9312). The assay plates were then incubated at room temperature for 1 hour, washed 3 times with 150 μl/well TBST buffer, and 25 μl/well secondary detection antibody, SULFO-TAG anti-rabbit antibody (MSD, R32AB-1) were added. The assay plates were then incubated at room temperature for 1 hour, washed 3 times with 150 μl/well TB ST buffer, and 150 μl/well MSD reading buffer (MSD, R92TC-2) were added. The plates were then analyzed by an MSD reader. The data was analyzed by GraphPad Prism and the dose dependent TYK2 degradation was fit using the four-parameter inhibitor vs. response nonlinear regression.
The letter codes for TYK2 DC50 include: A (<1 nM); B (i to <10 nM); C (10 to 100 nM); D (>100 nM); and E (not tested). The letter codes for TYK2 Dmax % include: A (>90%); B (90 to >75%); C (75 to 50%); D (<50%); and E (not tested).

[1] = TYK2 degradation in OCI-LY10 cells

T1 sequence (P29597 whole entry): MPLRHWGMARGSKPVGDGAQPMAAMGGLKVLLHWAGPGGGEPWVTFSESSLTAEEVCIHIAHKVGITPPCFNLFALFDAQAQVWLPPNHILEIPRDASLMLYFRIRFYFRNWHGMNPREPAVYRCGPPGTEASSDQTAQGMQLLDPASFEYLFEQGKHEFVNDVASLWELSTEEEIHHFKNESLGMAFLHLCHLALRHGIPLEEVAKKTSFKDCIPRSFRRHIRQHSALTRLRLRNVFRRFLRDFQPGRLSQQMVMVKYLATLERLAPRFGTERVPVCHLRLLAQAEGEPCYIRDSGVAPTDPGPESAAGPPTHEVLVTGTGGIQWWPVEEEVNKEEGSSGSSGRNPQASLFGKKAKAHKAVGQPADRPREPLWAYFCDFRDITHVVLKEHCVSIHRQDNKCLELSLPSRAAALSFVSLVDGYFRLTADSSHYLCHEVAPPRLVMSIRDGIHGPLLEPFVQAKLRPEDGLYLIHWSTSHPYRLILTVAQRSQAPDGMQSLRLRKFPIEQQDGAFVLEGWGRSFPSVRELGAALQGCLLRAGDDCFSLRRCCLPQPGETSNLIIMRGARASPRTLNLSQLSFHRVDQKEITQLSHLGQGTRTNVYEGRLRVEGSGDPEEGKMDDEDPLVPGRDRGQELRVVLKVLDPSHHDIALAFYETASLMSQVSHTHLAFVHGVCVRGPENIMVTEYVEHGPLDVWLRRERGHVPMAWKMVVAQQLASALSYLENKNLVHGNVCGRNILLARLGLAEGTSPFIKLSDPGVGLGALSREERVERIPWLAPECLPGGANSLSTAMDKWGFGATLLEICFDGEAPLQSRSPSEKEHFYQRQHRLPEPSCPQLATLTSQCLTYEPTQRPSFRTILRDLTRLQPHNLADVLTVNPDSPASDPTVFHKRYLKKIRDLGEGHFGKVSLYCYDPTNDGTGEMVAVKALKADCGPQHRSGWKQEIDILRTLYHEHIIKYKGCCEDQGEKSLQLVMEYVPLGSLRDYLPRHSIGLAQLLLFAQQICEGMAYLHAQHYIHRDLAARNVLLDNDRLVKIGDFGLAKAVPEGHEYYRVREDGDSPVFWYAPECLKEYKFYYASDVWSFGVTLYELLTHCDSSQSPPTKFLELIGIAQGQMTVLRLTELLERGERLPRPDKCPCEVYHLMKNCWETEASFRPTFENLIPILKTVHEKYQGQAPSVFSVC

| Compound | TYK2 MSD OCI-LY10 Dmax % [1] | DC50 [1] | TYK2 MSD OCI-LY10 Dmax % (OCI-LY10 cells) | DC50 (OCI-LY10 cells) | Dmax [1] |
| --- | --- | --- | --- | --- | --- |
| CNc1cc(N2CCc3c(CC4CCN(C5CCC6(CC5)CCN(C(=O)c5ccc(Cl)c(N7CCC(=O)NC7=O)c5)CC6)CC4)cccc32)nn2c(C(=O)N[C@@H]3C[C@@H]3F)cnc12 [I-820] | B (B (90 to >75%)) | < 10 nM | – | – | – |
| CNc1cc(N2CCc3c(CN4CCC(N5CC6(CCN(C(=O)c7ccc(Cl)c(N8CCC(=O)NC8=O)c7)CC6)C5)C(F)(F)C4)cccc32)nn2c(C(=O)N[C@@H]3C[C@@H]3F)cnc12 (stereo partly drawn) [I-840] | A (A (>90%)) | < 1 nM | – | – | – |
| CNc1cc(N2CCc3c(CN4CC[C@@H](N5CCC6(CCN(C(=O)c7ccc(Cl)c(N8CCC(=O)NC8=O)c7)CC6)CC5)C(F)(F)C4)cccc32)nn2c(C(=O)N[C@@H]3C[C@@H]3F)cnc12 [I-714] | – | – | B (B (90 to >75%)) | < 1 nM | – |
| CNc1cc(N2CCc3c(CN4CCC(N5CCC6(CCN(C(=O)c7ccc(Cl)c(N8CCC(=O)NC8=O)c7)CC6)CC5)C(F)(F)C4)cc(F)cc32)nn2c(C(=O)N[C@@H]3C[C@@H]3F)cnc12 (stereo partly drawn) [I-808] | A (A (>90%)) | < 1 nM | – | – | – |
| CNc1cc(N2CCc3c(CN4CCC(N5CCC6(CCN(C(=O)c7cc(N8CCC(=O)NC8=O)c(Cl)cc7F)CC6)CC5)C(F)(F)C4)cccc32)nn2c(C(=O)N[C@@H]3C[C@@H]3F)cnc12 (stereo partly drawn) [I-841] | A (A (>90%)) | < 1 nM | – | – | – |
| CNc1cc(N2CCc3c(N4CC(CN5CCN(C6CCN(C(=O)c7ccc(Cl)c(N8CCC(=O)NC8=O)c7)CC6)CC5)C4)cccc32)nn2c(C(=O)N[C@@H]3C[C@@H]3F)cnc12 [I-787] | – | – | D (D (<50%)) | > 100 nM | – |
| CNc1cc(N2CCc3c(-c4ncc(CN5CC6(CCN(C(=O)c7cc(N8CCC(=O)NC8=O)c(OC)cc7F)CC6(F)F)C5)cc4F)cccc32)nn2c(C(=O)N[C@@H]3CC[C@H]3OC)cnc12 [I-1134] | A (A (>90%)) | < 1 nM | – | – | – |
| COC1(c2cc(-c3ccc(CN4CCC5(CC4)CCN(C(=O)c4ccc(Cl)c(N6CCC(=O)NC6=O)c4)CC5)cn3)cc(-c3cn(C)c4cnc(NC(C)=O)cc34)n2)CCOC1 (stereo not drawn) [I-848] | A (A (>90%)) | < 1 nM | – | – | – |
| CNc1cc(N2CCc3c(-c4ccc(CN5CCC6(CCC(COc7ccc(N8CCC(=O)NC8=O)c(Cl)c7)CC6)CC5)cn4)cccc32)nn2c(C(=O)N[C@@H]3C[C@@H]3F)cnc12 [I-339] | D (D (<50%)) | < 10 nM | – | – | – |
| CNc1cc(N2CCc3c(-c4ccc(CN5CCC6(CCN(C(=O)c7ccc(Cl)c(N8CCC(=O)NC8=O)c7)CC6)C(F)(F)C5)cn4)cccc32)nn2c(C(=O)NC3CC3)cnc12 [I-57] | B (B (90 to >75%)) | < 10 nM | – | – | – |
| CNc1cc(N2CCc3c(-c4ccc(CC5CC6(CCN(C(=O)c7cc(F)c(Cl)c(N8CCC(=O)NC8=O)c7)CC6)C5)cn4)cccc32)nn2c(C(=O)N[C@@H]3CC[C@H]3OC)cnc12 [I-1104] | A (A (>90%)) | < 10 nM | – | – | – |
| CNc1cc(N2CCc3c(CC4CCN(C5CCC6(CCN(C(=O)c7ccc(Cl)c(N8CCC(=O)NC8=O)c7)CC6)OC5)CC4)cccc32)nn2c(C(=O)N[C@@H]3C[C@@H]3F)cnc12 (stereo partly drawn) [I-685] | – | – | C (C (75 to 50%)) | < 10 nM | – |
| CNc1cc(N2CCc3c(-c4ccc(CN5CCN(CC#Cc6cccc(N7CCC(=O)NC7=O)c6C)CC5)cn4)cccc32)nn2c(C(=O)NC3CC3F)cnc12 (stereo not drawn) [I-311] | C (C (75 to 50%)) | > 100 nM | – | – | – |
| CNc1cc(N2CCc3c(-c4ccc(CN5CC6(CCN(C(=O)c7ccc(C(F)(F)F)c(N8CCC(=O)NC8=O)c7)CC6(F)F)C5)cn4)cccc32)nn2c(C(=O)N[C@@H]3C[C@@H]3F)cnc12 [I-969] | C (C (75 to 50%)) | < 10 nM | – | – | – |
| CNc1cc(N2CCc3c2cccc3C23CC(CN4CCN(C5CCN(C(=O)c6ccc(Cl)c(N7CCC(=O)NC7=O)c6)CC5(F)F)CC4)(C2)C3)nn2c(C(=O)N[C@@H]3C[C@@H]3F)cnc12 (stereo partly drawn) [I-832] | A (A (>90%)) | < 1 nM | – | – | – |
| CNc1cc(N2CCc3c(-c4ccc(CN5CCC(N6CCC(Oc7ccc(Cl)c(N8CCC(=O)NC8=O)c7)CC6)C(F)(F)C5)cn4)cccc32)nn2c(C(=O)N[C@@H]3C[C@@H]3F)cnc12 (stereo partly drawn) [I-245] | D (D (<50%)) | > 100 nM | – | – | – |
| CNc1cc(N2CCc3c(-c4ccc(CN5CCC6(CC5)CN(C(=O)c5ccc(Cl)c(N7CCC(=O)NC7=O)c5)CC6(F)F)cn4)cccc32)nn2c(C(=O)N[C@@H]3C[C@@H]3F)cnc12 [I-847] | A (A (>90%)) | < 1 nM | – | – | – |
| CNc1cc(N2CCc3c(-c4ccc(CN5CC6(CCN(C(=O)c7ccc(Cl)c(N8CCC(=O)NC8=O)c7)CC6(F)F)C5)cn4)cccc32)nn2c(C(=O)N[C@H]3C[C@H](C)C3)cnc12 [I-888] | B (B (90 to >75%)) | < 10 nM | – | – | – |
| CNc1cc(N2CCc3c(-c4ccc(CN5CC6(CCN(C(=O)c7cc(C)c(Cl)c(N8CCC(=O)NC8=O)c7)CC6(F)F)C5)cn4)cccc32)nn2c(C(=O)NCc3ncco3)cnc12 [I-1077] | B (B (90 to >75%)) | < 1 nM | – | – | – |
| CNc1cc(N2CCc3c(N4CCN(CC5CC6(CCN(C(=O)c7ccc(Cl)c(N8CCC(=O)NC8=O)c7)CC6)C5)CC4)cccc32)nn2c(C(=O)NC3CC3)cnc12 [I-32] | C (C (75 to 50%)) | < 10 nM | – | – | – |
| CNc1cc(N2CCc3c(-c4ccc(CN5CC6(CCN(C(=O)c7ccc(Cl)c(C8CCC(=O)NC8=O)c7)CC6(F)F)C5)cn4)cccc32)nn2c(C(=O)N[C@@H]3C[C@@H]3F)cnc12 (stereo partly drawn) [I-502] | – | – | A (A (>90%)) | < 1 nM | – |
| CNC(=O)c1cnc(Nc2ccc(C(=O)NCCOCCOCCN(C(=O)[C@H]3CCCN(c4cncc5ccccc45)C3)c3ccc(=O)n(CC(=O)O)c3)cn2)cc1Nc1cccc(-c2ncccn2)c1OC [I-915, (S)-2-(5-(1-(isoquinolin-4-yl)-N-(2-(2-(2-(6-((4-((2-methoxy-3-(pyrimidin-2-yl)phenyl)amino)-5-(methylcarbamoyl)pyridin-2-yl)amino)nicotinamido)ethoxy)ethoxy)ethyl)piperidine-3-carboxamido)-2-oxopyridin-1(2H)-yl)acetic acid] | – | 10 to 100 nM | – | – | 50 to 75% |
| CNc1cc(N2CCc3c(-c4ccc(CN5CCC6(CC5)CCN(c5ccc(C7CCC(=O)NC7=O)c(Cl)c5)CC6)cn4)cccc32)nn2c(C(=O)N[C@@H]3C[C@@H]3F)cnc12 (stereo partly drawn) [I-77] | D (D (<50%)) | < 10 nM | – | – | – |
| CNc1cc(N2CCc3c(-c4cc(CN5CCN(CCc6ccc(Cl)c(C7CCC(=O)NC7=O)c6)CC5)ccn4)cccc32)nn2c(C(=O)NC3CC3F)cnc12 (stereo not drawn) [I-395] | – | – | D (D (<50%)) | > 100 nM | – |
| CNc1cc(N2CCc3c(-c4ccc(CN5CCC(N6CCC7(CCN(c8ccc9c(c8)n(C)c(=O)n9C8CCC(=O)NC8=O)CC7)CC6)C(F)(F)C5)cn4)cccc32)nn2c(C(=O)N[C@@H]3C[C@@H]3F)cnc12 (stereo partly drawn) [I-371] | C (C (75 to 50%)) | < 10 nM | – | – | – |
| CNc1cc(N2CCc3c(N4CC(CN5CCC(N6CCN(c7ccc8c(c7)n(C)c(=O)n8C7CCC(=O)NC7=O)CC6)C(F)(F)C5)C4)cccc32)nn2c(C(=O)NC3CC3)cnc12 (stereo not drawn) [I-12] | C (C (75 to 50%)) | < 1 nM | – | – | – |
| CNc1cc(N2CCc3c(-c4ccc(OC5CCC6(CC5)CCN(Cc5ccc(Cl)c(N7CCC(=O)NC7=O)c5)CC6)cn4)cccc32)nn2c(C(=O)N[C@@H]3C[C@@H]3F)cnc12 [I-362] | D (D (<50%)) | > 100 nM | – | – | – |
| CNc1cc(N2CCc3c(-c4ncc(CN5CC6(CCN(C(=O)c7cc(C)c(Cl)c(N8CCC(=O)NC8=O)c7)CC6(F)F)C5)cc4F)cccc32)nn2c(C(=O)NC3CC3)cnc12 [I-982] | B (B (90 to >75%)) | < 1 nM | – | – | – |
| CNc1cc(N2CCc3c(C#CCN4CCC(N5CCC6(CC5)CN(C(=O)c5ccc(Cl)c(N7CCC(=O)NC7=O)c5)C6)C(F)(F)C4)cccc32)nn2c(C(=O)N[C@@H]3C[C@@H]3F)cnc12 (stereo partly drawn) [I-702] | – | – | B (B (90 to >75%)) | < 1 nM | – |
| CNc1cc(N2CCc3c(N4CCN(C5CN(C6CCN(C(=O)c7ccc(Cl)c(N8CCC(=O)NC8=O)c7)CC6)C5)CC4)cccc32)nn2c(C(=O)N[C@@H]3C[C@@H]3F)cnc12 [I-288] | D (D (<50%)) | > 100 nM | – | – | – |
